According to article PMC4142213 (Nature, 2014):

Test system: DIO mice
Assay: OGTT with co-administration of 6bK and sitagliptin
Type: in vivo, mouse
Settings: OGTT 3.0 g kg^-1, sitagliptin 4 mg kg^-1 oral, 6bK 40 mg kg^-1

For `N[C@@H](CC(=O)N1CCn2c(nnc2C(F)(F)F)C1)Cc1cc(F)c(F)cc1F` [sitagliptin], the “reduction of blood glucose profile area compared to vehicle” value was 60–64%.
